What all share (assay type): biochemical, Ratte
Assay [1] deals with NADH-Ubichinon-1-Reduktase (Rattus norvegicus, UniProt A6K8N6+P03889+Q641Y2). Put plainly: NADH-ubiquinone-1 reductase (complex I) test, spectrophotometric at 340 nm.
Assay [2] addresses T1, Succinat-Dehydrogenase (Rattus norvegicus, UniProt P21913+Q641Z9+Q6PCT8+Q920L2).
T1 construct: Hemmung des Komplexes I bzw; II der mitochondrialen Atmungskette in Rattenhirn-Homogenaten; from tissue; host or cells: rat brain homogenate
Put plainly: Succinate dehydrogenase (complex II) activity. To be noted: Rattenhirn-Homogenate.

For assay [3], the target named is NADH-Oxidase (Rattus norvegicus, UniProt A6K8N6+P03889+Q641Y2). In words: NADH oxidase activity of complex I of the mitochondrial respiratory chain.
In assay [4] the target is NADH-Cytochrom-c-Reduktase (Rattus norvegicus, UniProt A6K8N6+P03889+Q641Y2). In words: NADH-cytochrome-c reductase test (complex I/III), spectrophotometric at 550 nm. Here is the method: (§1) Die Isolierung von SMP's aus Rattenleber erfolgte nach (Ragan et al., 1987; Rickwood et al., 1987). • 8.1 Hemmung des Komplexes I der Atmungskette in SMP's durch N-Me-TaClo Komplex I (NADH-Dehydrogenase) der mitochondrialen Atmungskette katalysiert im ersten Schritt eine NADH-Oxidation. Die dabei freiwerdenden Elektronen werden in einem zweiten Schritt auf Coenzym Q bzw. Ubichinon übertragen. Ein typischer Testansatz (modifiziert nach Ragan et al., 1987) enthält dabei 20 mM K-Phosphat Puffer, pH 8.0, 0.2 mM NADH, 1 mM KCN, SMP (ca. 0.3 mg Protein/ml) und +/- 250 µM N-Me-TaClo (25 mM methanolische Stammlösung). Der Start der Reaktion erfolgt durch Zugabe von 50 µM Ubichinon-1. Die Messung der Reaktion erfolgt spektralphotometrisch bei einer Wellenlänge von 340 nm während der linearen Phase. Bei Zugabe von N-Me-TaClo erfolgt eine 100proz. Hemmung der Ubichinon-Reduktion (s.a. Tabelle 1). • 8.2 Hemmung der elektronenübertragenden Reaktionen auf Coenzym Q: NADH-Cytochrom-c-Reduktase und Succinat-Cytochrom-c-Reduktase Coenzym Q wird sowohl durch freiwerdende Elektronen bei der Komplex-I-katalysierten NADH-Oxidation, als auch bei der Komplex-II (Succinat-Coenzym-Q-Reduktase) -katalysierten Reaktion reduziert. Messungen dieser Reaktionswege mit anschließendem Elektronenfluß über den Komplex III bis zur Cytochrom-c-Reduktion lassen sich mittels folgender Tests untersuchen und durch die hier vorgestellten halogenierten β-Carbolinderivate (im folgenden am Beispiel von N-Me-TaClo) hemmen: • NADH-Cytochrom-c-Reduktase-Test (modifiziert nach Sottocasa et al., 1967) Ein typischer Testansatz enthält 25 mM K-Phosphat-Puffer, pH 7.5, 0.2 mM NADH, 0.1 mM Cytochrom-c, 0.5 mM KCN und +/- 250 µM N-Me-TaClo (25 mM methanolische Stammlösung). Die Messung der Reaktion erfolgt spektralphotometrisch bei einer Wellenlänge von 550 nm während der linearen Phase. Bei Zugabe von N-Me-Taclo erfolgt eine 100proz. Hemmung der Reaktion (s.a. Tabelle 1). • - Succinat-Cytochrom-c-Reduktase-Test (modifiziert nach Sottocasa et al., 1967) Ein typischer Testansatz enthält 55 mM K-Phosphat-Puffer, pH 7.5, 3 mM Na-Succinat, 0.1 mM Cytochrom c, +/- 250 µM N-Me-TaClo (25 mM methanolische Stammlösung) und 0.5 mM KCN. Gestartet wird die Reaktion mit SMP (ca. 0.3 mg Protein/ml). Die Messung der Reaktion erfolgt spektralphotometrisch bei einer Wellenlänge von 550 nm während der linearen Phase. Bei Zugabe von N-Me-TaClo erfolgt eine 100proz. Hemmung der Reaktion (s. auch Tabelle 1). • - Einsatz der halogenierten β-Carboline als Hemmstoffe der NADH- bzw. Succinat-gekoppelten Oxidation; Polarographische Messungen der Enzymaktivitäten an SMP's ("submitochondrial particles") Bei der polarographischen Messung wird die Aktivität der Atmungskette in ihrer Gesamtheit ausgehend von der NADH-Oxidation (Komplex I) bzw. Succinat-Oxidation (Komplex II) bis zur O2-Reduktion (Komplex IV) bestimmt. Als Maß der Aktivität wird der O2-Verbrauch bestimmt. Der Test wird unter Verwendung einer Clark-Sauerstoffelektrode (Rank Brothers, England) bei 30°C in 2 ml Puffer (50 mM K-Phosphat, pH 7.4, 250 mM Saccharose) und 0.15 mg SMP-Protein/ml durchgeführt. Nach 5 minütiger Vorinkubation ± Inhibitor wird die Messung mit NADH (Endkonzentration 0.28 mM) bzw. Succinat (Endkonzentration 20 mM) gestartet. Bei der Succinat-gekoppelten Oxidation werden die SMP's vorher nach Krueger et al., (1993) mit Malonat aktiviert.

The test system of assay [5] is Succinat-Cytochrom-c-Reduktase. Put plainly: Succinate-cytochrome-c reductase test (complex II/III), spectrophotometric at 550 nm. Here is the method:
as §1, with “Succinat-Oxidation (Komplex II) bis zur O2-Reduktion (Komplex IV) bestimmt. Als Maß der Aktivität wird der O2-Verbrauch bestimmt. Der Test wird unter Verwendung einer Clark-Sauerstoffelektrode (Rank Brothers, England) bei 30°C in 2 ml Puffer (50 mM K-Phosphat, pH 7.4, 250 mM Saccharose) und 0.15 mg SMP-Protein/ml durchgeführt. Nach 5 minütiger Vorinkubation ± Inhibitor wird die Messung mit NADH (Endkonzentration 0.28 mM) bzw. Succinat (Endkonzentration 20 mM) gestartet. Bei der Succinat-gekoppelten Oxidation werden die SMP's vorher nach Krueger et al., (1993) mit Malonat aktiviert.” left out

The target of assay [6] is Cytochrom c Oxidase (Rattus norvegicus, UniProt P00406+P05503). In words: Cytochrome c oxidase (complex IV) activity. The note with it: 500 µM TaClo, Rattenhirn-Homogenate.
[7] abbreviates: bei 500 µmol, Rattenhirn-Homogenate, read-out: Komplex-I-Hemmung Inhibierungsrate (in %) bei gegebener Konzentration (in µmol).
Where [8] appears, read: bei 500 µmol, read-out: Komplex-II-Hemmung Inhibierungsrate (in %) bei gegebener Konzentration (in µmol).
Setting [9] is: bei 250 µmol, read-out: Komplex-II-Hemmung Inhibierungsrate (in %) bei gegebener Konzentration (in µmol).
Where [10] appears, read: read-out: Inhibierungsrate durch TaClo.

Consider 15 molecules from patent publication EP0815110B1.

Like-named read-outs stand apart in the source and are kept apart here.

Sequence of NADH-Ubichinon-1-Reduktase (P03889 whole entry): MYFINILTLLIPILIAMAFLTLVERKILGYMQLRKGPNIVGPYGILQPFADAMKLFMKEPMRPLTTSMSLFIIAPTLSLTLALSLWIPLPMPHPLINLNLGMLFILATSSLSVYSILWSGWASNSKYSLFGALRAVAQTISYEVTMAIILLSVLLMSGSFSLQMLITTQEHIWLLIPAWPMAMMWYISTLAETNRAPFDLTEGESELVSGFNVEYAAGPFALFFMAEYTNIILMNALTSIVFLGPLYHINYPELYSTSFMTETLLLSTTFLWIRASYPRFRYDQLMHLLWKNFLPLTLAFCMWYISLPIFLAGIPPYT
Sequence of NADH-Ubichinon-1-Reduktase (Q641Y2 34-463): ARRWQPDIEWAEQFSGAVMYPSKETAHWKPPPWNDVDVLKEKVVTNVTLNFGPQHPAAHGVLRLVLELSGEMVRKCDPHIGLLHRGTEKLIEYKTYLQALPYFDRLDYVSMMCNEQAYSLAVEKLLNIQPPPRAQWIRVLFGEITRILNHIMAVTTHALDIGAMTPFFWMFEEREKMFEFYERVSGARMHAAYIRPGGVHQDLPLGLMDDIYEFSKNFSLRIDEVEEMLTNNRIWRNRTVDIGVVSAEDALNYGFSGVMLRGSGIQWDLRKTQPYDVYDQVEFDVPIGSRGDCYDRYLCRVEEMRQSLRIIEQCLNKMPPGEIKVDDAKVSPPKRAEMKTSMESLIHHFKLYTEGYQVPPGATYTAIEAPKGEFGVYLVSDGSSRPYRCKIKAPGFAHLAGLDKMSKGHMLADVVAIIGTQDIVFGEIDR
Sequence of NADH-Ubichinon-1-Reduktase (A6K8N6 entry or part of it): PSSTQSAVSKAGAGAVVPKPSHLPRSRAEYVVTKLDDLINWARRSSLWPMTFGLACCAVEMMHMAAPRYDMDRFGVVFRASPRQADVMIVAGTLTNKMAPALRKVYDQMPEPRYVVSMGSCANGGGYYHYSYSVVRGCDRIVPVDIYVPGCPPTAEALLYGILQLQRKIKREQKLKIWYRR
Sequence of NADH-Cytochrom-c-Reduktase (Q641Y2 34-463): as the sequence (Q641Y2 34-463) above
Sequence of NADH-Cytochrom-c-Reduktase (P03889 whole entry): as the sequence (P03889 whole entry) above
Sequence of NADH-Cytochrom-c-Reduktase (A6K8N6 entry or part of it): as the sequence (A6K8N6 entry or part of it) above
T1 sequence (Q920L2 35-656): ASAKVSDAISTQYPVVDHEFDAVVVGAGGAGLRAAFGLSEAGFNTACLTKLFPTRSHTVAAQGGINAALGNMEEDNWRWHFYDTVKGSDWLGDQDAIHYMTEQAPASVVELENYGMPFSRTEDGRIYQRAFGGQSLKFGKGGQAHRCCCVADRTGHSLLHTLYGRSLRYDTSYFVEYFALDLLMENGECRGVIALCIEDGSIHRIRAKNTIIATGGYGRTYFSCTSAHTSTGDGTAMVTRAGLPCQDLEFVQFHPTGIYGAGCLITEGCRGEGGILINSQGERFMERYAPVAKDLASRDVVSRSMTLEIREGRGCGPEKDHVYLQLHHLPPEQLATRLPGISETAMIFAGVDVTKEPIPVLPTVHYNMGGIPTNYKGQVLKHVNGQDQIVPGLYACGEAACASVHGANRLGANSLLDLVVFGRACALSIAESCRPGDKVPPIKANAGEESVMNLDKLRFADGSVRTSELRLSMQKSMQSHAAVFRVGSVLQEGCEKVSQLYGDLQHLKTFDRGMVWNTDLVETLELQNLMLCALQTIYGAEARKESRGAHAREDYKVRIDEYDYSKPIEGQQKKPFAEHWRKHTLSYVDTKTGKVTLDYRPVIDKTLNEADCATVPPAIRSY
T1 sequence (P21913 31-282): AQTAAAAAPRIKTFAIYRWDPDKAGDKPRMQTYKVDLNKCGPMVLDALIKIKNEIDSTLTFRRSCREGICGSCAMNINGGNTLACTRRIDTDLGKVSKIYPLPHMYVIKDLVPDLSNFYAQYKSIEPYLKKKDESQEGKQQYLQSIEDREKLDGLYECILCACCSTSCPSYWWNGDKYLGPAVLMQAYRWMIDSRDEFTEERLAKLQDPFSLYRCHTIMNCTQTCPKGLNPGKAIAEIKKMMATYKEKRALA
T1 sequence (Q641Z9 1-169): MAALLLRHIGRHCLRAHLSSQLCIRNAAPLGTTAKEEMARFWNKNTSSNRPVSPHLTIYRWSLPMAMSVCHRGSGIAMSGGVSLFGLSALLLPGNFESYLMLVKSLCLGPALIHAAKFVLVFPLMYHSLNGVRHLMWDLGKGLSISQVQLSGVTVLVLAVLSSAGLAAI
T1 sequence (Q6PCT8 57-159): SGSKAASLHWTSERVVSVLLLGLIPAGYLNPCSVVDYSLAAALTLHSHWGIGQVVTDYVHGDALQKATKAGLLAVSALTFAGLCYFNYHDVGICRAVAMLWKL

As to `CC(=O)N1CCc2c([nH]c3ccccc23)C1C(Cl)(Cl)Cl` (racemic) [N-Acetyl-TaClo], the inhibition at 500 µM in assay [1] (setting [7]) stood at 20%.

For the molecule `C=CCN1CCc2c([nH]c3ccccc23)C1C(Cl)(Cl)Cl` (racemic) [N-Allyl-TaClo], the inhibition at 500 µM in assay [2] (setting [8]) is at least 100%.

For the molecule `ClC(Cl)(Cl)C1c2[nH]c3ccccc3c2CCN1Cc1ccccc1` (racemic) [N-Bzl-TaClo], the inhibition at 250 µM in assay [2] (setting [9]) came out at 55%.

With `CCN1CCc2c([nH]c3ccccc23)C1C(Cl)(Cl)Cl` (racemic) [N-Ethyl-TaClo], the inhibition at 500 µM in assay [2] (setting [8]) is 75%.

Regarding `O=CN1CCc2c([nH]c3ccccc23)C1C(Br)(Br)Br` (racemic) [N-Formyl-TaBro], the inhibition at 500 µM in assay [1] (setting [7]) worked out at 83%.

In the case of `CN1CCc2c([nH]c3ccccc23)C1C(Cl)(Cl)Cl` (racemic) [N-Me-TaClo], the inhibition at 250 µM in assay [3] (NADH-Oxidase, 250 µM, Rattenhirn-Homogenate, read-out: Inhibierung bei 250 µM N-Me-TaClo) is 0%; in assay [1] (250 µM N-Me-TaClo, SMP's aus Rattenleber, read-out: Hemmung der Ubichinon-Reduktion) it was 100%; in assay [1] (NADH-Ubichinon-1-Reduktase, 250 µM, Rattenhirn-Homogenate, read-out: Inhibierung bei 250 µM N-Me-TaClo), 100%; in assay [4] (250 µM N-Me-TaClo, SMP's aus Rattenleber, read-out: Hemmung der Reaktion (NADH-Cytochrom-c-Reduktase-Test)), 100%; in assay [4] (NADH-Cytochrom-c-Reduktase, 250 µM, Rattenhirn-Homogenate, read-out: Inhibierung bei 250 µM N-Me-TaClo), 70%; in assay [2] (Succinat-Dehydrogenase, 250 µM, read-out: Inhibierung bei 250 µM N-Me-TaClo) it was 100%. Besides, the inhibition at 250 µM in assay [2] (setting [9]) is at least 100%. In assay [5] (250 µM N-Me-TaClo, SMP's aus Rattenleber), the “Hemmung der Reaktion (Succinat-Cytochrom-c-Reduktase-Test)” value is recorded as 100 proz. Besides, in assay [5] (Succinat-Cytochrom-c-Reduktase, 250 µM, Rattenhirn-Homogenate), the “Inhibierung bei 250 µM N-Me-TaClo” value was 80%.

Regarding `O=C(CCl)N1CCc2c([nH]c3ccccc23)C1C(Cl)(Cl)Cl` (racemic) [N-Monochloracetyl-TaClo], the inhibition at 500 µM in assay [1] (setting [7]) was 95%.

With `O=C(N1CCc2c([nH]c3ccccc23)C1C(Cl)(Cl)Cl)C(Cl)(Cl)Cl` (racemic) [N-Trichloracetyl-TaClo], the inhibition at 500 µM in assay [1] (setting [7]) was 90%.

For the molecule `ClC(Cl)(Cl)C1NCCc2c1[nH]c1ccccc21` (racemic) [TaClo, 1-Trichlormethyl-1,2,3,4-tetrahydro-β-carbolin], the “Enzymaktivität (nmol/min/mg Protein)” value is listed as 138.0 nmol/min/mg Protein in assay [3] (NADH-Oxidase, 500 µM TaClo, Rattenhirn-Homogenate, Kontrolle 141.0); 1.6 nmol/min/mg Protein in assay [1] (NADH CoQ1 Reduktase, 500 µM TaClo, Rattenhirn-Homogenate, Kontrolle 10.9); 14.7 nmol/min/mg Protein in assay [4] (NADH Cyt c Reduktase, 500 µM TaClo, Rattenhirn-Homogenate, Kontrolle 24.6); 9.2 nmol/min/mg Protein in assay [5] (Succinat Cyt c Reduktase, 500 µM TaClo, Rattenhirn-Homogenate, Kontrolle 11.9); 30.1 nmol/min/mg Protein in assay [2] (Succinat Dehydrogenase, 500 µM TaClo, Kontrolle 29.6); 38.9 nmol/min/mg Protein in assay [6] (Kontrolle 45.8). The inhibition at 500 µM was 0% in assay [3] (setting [10]); 85% in assay [1] (setting [10]); 40% in assay [4] (setting [10]); 0% in assay [2] (Succinat Dehydrogenase, 500 µM TaClo, read-out: Inhibierungsrate durch TaClo); 30% in assay [2] (setting [8]); 20% in assay [6] (setting [10]). Also, the “Einfluß auf die NADH-Oxidation” value in assay [3] (result in words, s. Tabelle 2) is “beeinflußt jedoch nicht die NADH-Oxidation”. Besides, in assay [5] (Succinat Cyt c Reduktase, 500 µM TaClo, Rattenhirn-Homogenate), the “Inhibierungsrate durch TaClo” value stood at 22%.

Consider `COC(=O)[C@@H]1Cc2c([nH]c3ccccc23)C(C(Cl)(Cl)Cl)N1` (stereo partly shown) [3-COOMe-TaClo], for which the inhibition at 500 µM in assay [2] (setting [8]) amounted to 75%.

Regarding `FC(F)(F)C1=NCCc2c1[nH]c1ccccc21` [DDH-TaFlu, 1-Trifluormethyl-3,4-didehydro-β-carbolin], the inhibition at 250 µM in assay [2] (setting [9]) is 20%.

`ClC(Cl)=C1NCCc2c1[nH]c1ccccc21` [Dichlormethylen-TaClo]: the inhibition at 250 µM in assay [2] (setting [9]) was found to be 40%.

As for `COC(=O)C1Cc2c([nH]c3ccccc23)C(C(Cl)(Cl)Cl)N1Cc1ccccc1` (stereo not shown) [N-Bzl-3-COOMe-TaClo], the inhibition at 500 µM in assay [2] (setting [8]) came to 60%.

Take `O=CN1CCc2c([nH]c3ccccc23)C1=C(Br)Br` [N-Formyl-dibrommethylen-TaBro]: the inhibition at 500 µM in assay [1] (setting [7]) is at least 100%.

In the case of `C=C(C)[C@H]1Cc2c(ccc3c2O[C@@H]2COc4cc(OC)c(OC)cc4[C@@H]2C3=O)O1` [Rotenon, reference compound], the entries for the “Enzymaktivität (nmol/min/mg Protein)” value in assay [1] and in assay [4] were 4.2 nmol/min/mg Protein and 5.7 nmol/min/mg Protein, respectively.
